This note sets out measurements from patent publication US11584733B2, “Selective histone deacetylase inhibitors for the treatment of human disease” (Shuttle Pharmaceuticals, Inc., priority 2017, dated 2023).

This test deals with MCF-7 breast cancer cells. In words: Cell Proliferation and Cytotoxicity Assay (CCK-8). Conditions: FIG. 15. The test is classed as cell-based. An excerpt:
Cell Counting Kit-8 (CCK-8) (Dojindo) was used to determine the cytotoxicity of cells. CCK-8 assay kit uses a water-soluble WST-8 tetrazolium salt. This tetrazolium salt produces a water-soluble formazan dye upon reduction in the presence of an electron mediator (dehydrogenase). When WST-8 is reduced by dehydrogenases in living cells an orange colored product (formazan) is produced that can be detected in a 96-well plate format. The amount of the formazan dye generated by dehydrogenases is directly proportional to the number of living cells.
For this assay the following materials were required:
1. Plate reader (450 nm filter);
5. Tissue Culture Media; and
6. Actively growing cells (75-80% confluency).
The following dilutions with cell media were made prior to performance of an assay: Test compound solutions were made in a range from nano-molar to micro-molar with a final DMSO concentration not exceeding 0.1% and a total volume (e.g., 300 ul) necessary to perform duplicates of 100 μl doses.
A Cell Proliferation and Cytotoxicity Assay was performed as follows:
1. Dispense 100 μl of cell suspension (5000 cells/well) in a 96-well plate equal to the number of treatments plus controls done in duplicate;
2. Allow seeded cells to plate for 24 hours in a humidified incubator (at 37° C., 5% CO2);
3. […]
7. Measure the absorbance at 450 nm using a micro-plate reader; and […]

For `O=C(CCCCCCC(=O)NC1CCC(=O)NC1=O)NO` (centres unmarked) [SP-2-59, N^1-(2,6-dioxopiperidin-3-yl)-N^8-hydroxyoctanediamide], the EC50 (Homo sapiens, MCF7, 48 hours incubation, read-out: EC50 against MCF-7 breast cancer cells) worked out at 5.03 µM. Where the note is “at about 10 μM”, this molecule displayed an MCF-7 cells killed of 78%.

For orientation: EC50 means the concentration needed to bring the measured effect to its halfway point.
